According to US5236912A, “Antiandrogenic [3,2-c]pyrazole and [3,2-d]triazole steroids” (Schering Aktiengesellschaft, priority 1990, dated 1993):
Values joined by “and” are separate entries in the source; they are usually repeats but may differ in a detail not shown here. Identical values can stand only once.

Legend:
[1] = system: orchiectomized, testosterone propionate-substituted rats; assay: classical antiandrogen test on orchiectomized, testosterone propionate-substituted rats (inhibition of prostate weight); assay type: in vivo; conditions: 3 mg s.c.; for Antiandrogen Test: % Inhibition of Prostate Weight: orchiectomized, testosterone propionate-substituted rats (0.1 mg/animal/day), seven day treatment
Description: These two compounds, the classical antiandrogen test on orchiectomized, testosterone propionate-substituted rats (dose: 0.1 mg/animal/day) show, after a seven day treatment (s.c.) with 3 mg/animal/day) of the antiandrogen, merely about 30% of the antiandrogenic potency of cyproterone acetate (17α-acetoxy-6-chlor-1α,2α-methylene-4,6-pregnadiene-3,20-dione) which constitutes the standard antiandrogen (Friedmund Neumann, Rudolf Wiechert, "Die Geschichte von Cyproteronacetat, Ungewoehnliche Wege bei der Entwicklung eines Arzneimittels" [The History of Cyproterone Acetate, the Development of a Medicine Along Unusual Routes], MPS Medizinisch-Pharmazeutische Studiengesellschaft e.V. [Association for Medical-Pharmaceutical Studies] Mainz, Mainz (1984).

[2] = system: testosterone levels; assay: peripheral selectivity / counter regulation: testosterone levels in rats after administration of the compound; assay type: in vivo; conditions: for Counter Regulation: testosterone levels 24 hours after 10 mg s.c., lack of counter regulation = peripheral selectivity
Description: In order to test peripheral selectively, the testosterone levels are measured in rats 24 hours after administration of 10 mg s.c. of the compound: lack of counter regulation is evaluated as peripheral selectively.

[3] = system: testosterone levels; conditions: in words, background statement; cited from earlier work
[4] = system: orchiectomized, testosterone propionate-substituted rats; conditions: compound described in EP 0 207 375 A1; cited from earlier work

Structure (SMILES)	Antiandrogen Test: % Inhibition of Prostate Weight [1] [%]	Counter Regulation [2]	Antiandrogen Test: % Inhibition of Prostate Weight, comparison Cyproterone Acetate (value in parentheses) ([1]; cyproterone acetate comparison value)	effect on the hypothalamus-hypophysis system [3]	antiandrogen activity compared with cyproterone acetate [4]	testosterone level in the serum ([2]; central effect (counter regulation by feedback))	peripheral selectivity ([2]; lack of counter regulation is evaluated as peripheral selectivity)
CC12Cc3cn(S(C)(=O)=O)nc3C=C1CCC1C2CCC2(C)C1C=CC2(C)O (stereo not drawn) [A, 1'-mesyl-17α-methyl-1'H-androsta-4,15-dieno[3,2-c]pyrazol-17β-ol]	80	No					
CC12Cc3cn(S(C)(=O)=O)nc3C=C1C1(CC1)CC1C2CCC2(C)C1CCC2(C)O (stereo not drawn) [B, 6,6-ethylene-1'-mesyl-17α-methyl-1'H-androst-4-eno[3,2-c]pyrazol-17β-ol]	73	No					
CC1CC2=Cc3nn(S(C)(=O)=O)cc3CC2(C)C2CCC3(C)C(CCC3(C)O)C12 (stereo not drawn) [C, 7α,17α-dimethyl-1'-mesyl-1'H-androst-4-eno[3,2-c]pyrazol-17β-ol]	53	No					
CC(=O)O[C@]1(C(C)=O)CC[C@H]2[C@@H]3C=C(Cl)C4=CC(=O)[C@@H]5C[C@@H]5[C@]4(C)[C@H]3CC[C@@]21C [Cyproterone Acetate, 17α-acetoxy-6-chlor-1α,2α-methylene-4,6-pregnadiene-3,20-dione]			97% and 86% and 87% and 95% and 100%	affecting, as does the latter compound, the hypothalamus-hypophysis system			
CC12Cc3nn(S(C)(=O)=O)nc3C=C1CCC1C2CCC2(C)C1C=CC2(C)O (stereo not drawn) [D, 2'-mesyl-17α-methyl-2'H-triazolo[4',5':2,3]androsta-4,15-dien-17β-ol]	97	No					
CC1=C2CCC3C(CCC4(C)C3CCC4(C)O)C2(C)Cc2cn(S(C)(=O)=O)nc21 (stereo not drawn) [E, 4,17α-dimethyl-1'-mesyl-1'H-androst-4-eno[3,2-c]pyrazol-17β-ol]	88	Yes			comparable to cyproterone acetate	raises the testosterone level in the serum	no peripheral selectivity
